For one assay, the target named is T1, EP1 (Homo sapiens, UniProt P34995).
T1 construct: expressed in transfected cells; host or cells: CHO (EP1-CHO)
T1 sequence (P34995 1-402): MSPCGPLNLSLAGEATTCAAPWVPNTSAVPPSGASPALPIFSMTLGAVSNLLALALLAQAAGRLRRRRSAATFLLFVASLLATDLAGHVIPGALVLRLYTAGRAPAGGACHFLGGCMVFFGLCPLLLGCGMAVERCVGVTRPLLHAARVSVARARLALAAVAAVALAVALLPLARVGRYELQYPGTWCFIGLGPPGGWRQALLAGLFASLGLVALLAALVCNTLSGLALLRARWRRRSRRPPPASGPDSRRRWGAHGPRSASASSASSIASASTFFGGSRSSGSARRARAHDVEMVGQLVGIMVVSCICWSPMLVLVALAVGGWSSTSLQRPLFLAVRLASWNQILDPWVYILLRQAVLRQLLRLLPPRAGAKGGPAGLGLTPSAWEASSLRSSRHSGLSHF
The assay can be described thus: agonist activity on human EP1 receptor (intracellular calcium concentration, EP1-CHO cells). In kind it is cell-based. The method, boiled down: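 Calcium 6 dye loaded 1 h at room temperature in HBSS with 1% human serum albumin, 2 µmol/L indomethacin, 2.5 mmol/L probenecid, pH 7.4; agonists then added at various concentrations. Intracellular calcium read by fluorescence (ex 480/em 540 nm) in CHO cells expressing human EP1 or Chem1 cells expressing human EP3.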

The target of the next assay is T2, EP3 receptor (Homo sapiens, UniProt P43115).
T2 construct: expressed in transfected cells; host or cells: EP3-Chem1
T2 sequence (P43115 1-390): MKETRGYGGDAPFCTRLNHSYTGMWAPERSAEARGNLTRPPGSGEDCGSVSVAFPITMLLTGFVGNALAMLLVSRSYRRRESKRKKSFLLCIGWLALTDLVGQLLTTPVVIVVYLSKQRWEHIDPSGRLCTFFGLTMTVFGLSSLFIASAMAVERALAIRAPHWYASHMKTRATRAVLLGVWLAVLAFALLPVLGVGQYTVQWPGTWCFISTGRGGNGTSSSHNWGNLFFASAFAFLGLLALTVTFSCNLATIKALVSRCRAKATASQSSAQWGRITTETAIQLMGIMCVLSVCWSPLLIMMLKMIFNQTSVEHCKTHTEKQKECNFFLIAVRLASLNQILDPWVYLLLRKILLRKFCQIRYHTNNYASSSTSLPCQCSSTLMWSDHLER
The assay can be described thus: agonist activity on human EP3 receptor (intracellular calcium concentration, EP3-Chem1 cells). In kind it is cell-based. Conditions: agonist activity on the EP3 receptor. The method, then:
(§1) Using CHO cells (EP1-CHO, EP2-CHO, EP3-Chem1, EP4-CHO and IP-CHO) on which various human prostanoid receptors were forcibly expressed, the agonist activity of the test compound on the various prostanoid receptors was examined using the intracellular calcium concentration for EP1 and EP3, and the intracellular cyclic AMP (hereinafter, abbreviated as cAMP) production amount for EP2, EP4 and IP as indices.
The test compound and control substances (PGE2 and iloprost) were dissolved in dimethyl sulfoxide (DMSO) to prepare a 10 mmol/L solution. The prepared 10 mmol/L solution was thawed at the time of use, serially diluted using DMSO, and diluted with a buffer solution 1 for measurement (Hank's balanced salt solution (Thermofischer scientific) containing 1 w/v% human serum albumin (Sigma), 2 µmol/L indomethacin (Sigma), 2.5 mmol/L probenecid, and 10 mmol/L HEPES-NaOH (pH7.4)) or a buffer solution 2 for measurement (D-PBS (Nacalai Tesque) containing 0.1 w/v% human serum albumin, 2 µmol/L diclofenac (Sigma), and 1 mmol/L 3-isobutyl-1-methylxanthine (Sigma)) to perform experiments.

Assay [1] concerns rat renal ischemia reperfusion (IR) model. As to the kind of experiment: in vivo drug efficacy in rat renal ischemia reperfusion (IR) model. Also noted: species or system Crl : CD (SD) rats. Conditions: subcutaneous osmotic pump. On the procedure: The effect of the present compound on renal IR damage was evaluated using male rats.
Male Crl : CD (SD) rats aged 3 or 4 weeks were purchased from Charles River Laboratories Japan, and subjected to experiments. Animals were fed ad libitum with FR-2 (Funabashi Farm) at the time of arrival and with solid feed CE-2 (CLEA Japan) for one week before single kidney removal, and watered ad libitum.
After acclimation breeding, the right kidney was removed about 7 days before renal IR treatment. Specifically, the rats were allowed to inhale isoflurane (Mylan) for anesthesia, and administered buprenorphine (Otsuka Pharmaceutical) as an analgesic at 0.01 mg/kg. The right back was incised, the right kidney was removed, and then the incision was sutured.
Renal IR treatment was performed about 7 days after single kidney removal. Specifically, rats were anesthetized by intraperitoneal administration of sodium pentobarbital (Tokyo Chemical Industry) at a dose of 50 mg/kg, and administered buprenorphine as an analgesic at 0.01 mg/kg. The left abdomen was incised, and the renal artery and vein was sandwiched with a clamp (Natsume Seisakusho) to cause ischemia for 35 minutes. During ischemia, the rats were allowed to lie on a heat-retaining plate set at 38°C, and after 35 minutes, the clamp was removed for reperfusion. After visually confirming that blood flow to the kidney was recovered, the incision was sutured. The sham group was a sham-operated group in which neither ischemia nor reperfusion treatment was performed.
Animals were distributed on the day before renal IR treatment such that differences in the mean of the body weight in each group were not biased, and assigned animal numbers.
The compound of Example 7 (test substance) and physiological saline (Otsuka Pharmaceutical) as a vehicle were subcutaneously administered at 5 mL/kg using an injection needle 5 minutes before renal IR treatment. Saline was administered to the sham group in the same test. The administration dose is described in Table 16.
Specifically, the rats were allowed to inhale isoflurane for anesthesia on the day before renal IR treatment, and administered buprenorphine as an analgesic at 0.01 mg/kg. […] The incision was bonded with Dermabond Advanced (Johnson & Johnson). A pump containing a vehicle was also embedded in the sham group in the same test. The administration dose is described in Table 16.
After renal IR treatment, blood was collected through the tail vein on Day1, Day2, and Day3 to obtain serum. In addition, after renal IR treatment, rats were euthanized by exsanguination through the abdominal aorta under isoflurane anesthesia on Day3.
The respective concentrations of serum creatinine (sCre) and blood urea nitrogen (BUN) were measured using an automatic analyzer 7180 (Hitachi High-Tech).

Another assay addresses T3, IP (Homo sapiens, UniProt P43119).
T3 construct: expressed in transfected cells; host or cells: CHO (IP-CHO)
As to the kind of experiment: agonist activity on human IP receptor (cAMP production, IP-CHO cells). In kind it is cell-based. On the procedure: as §1
(§2) The test compound and control substances (PGE2 and iloprost) were dissolved in dimethyl sulfoxide (DMSO) to prepare a 10 mmol/L solution. […]
(§3) On the day of the measurement, EP2-CHO, EP4-CHO, and IP-CHO were obtained by thawing frozen cells. […] The cAMP concentration was measured using a cAMP HTRF HiRange kit (CIS bio International). […] After incubation for 1 hour, time-resolved fluorescence at 620 nm and 660 nm when excited at 340 nm was measured using Synergy Neo (Bioteck), and the ratio (TRF ratio) was determined to calculate the cAMP concentration from the calibration curve.

In a further assay the target is T4, EP2 (Homo sapiens, UniProt P43116).
T4 construct: expressed in transfected cells; host or cells: CHO (EP2-CHO)
The assay can be described thus: agonist activity on human EP2 receptor (cAMP production, EP2-CHO cells). In kind it is cell-based. The method, then: as §1, §2, §3

Another assay has as its target T5, EP4 (Homo sapiens, UniProt P35408).
T5 construct: expressed in transfected cells; host or cells: CHO (EP4-CHO)
As to the kind of experiment: agonist activity on human EP4 receptor (cAMP production, EP4-CHO cells). In kind it is cell-based. The method, then: as §1, §2, §3

T3 sequence (P43119 whole entry): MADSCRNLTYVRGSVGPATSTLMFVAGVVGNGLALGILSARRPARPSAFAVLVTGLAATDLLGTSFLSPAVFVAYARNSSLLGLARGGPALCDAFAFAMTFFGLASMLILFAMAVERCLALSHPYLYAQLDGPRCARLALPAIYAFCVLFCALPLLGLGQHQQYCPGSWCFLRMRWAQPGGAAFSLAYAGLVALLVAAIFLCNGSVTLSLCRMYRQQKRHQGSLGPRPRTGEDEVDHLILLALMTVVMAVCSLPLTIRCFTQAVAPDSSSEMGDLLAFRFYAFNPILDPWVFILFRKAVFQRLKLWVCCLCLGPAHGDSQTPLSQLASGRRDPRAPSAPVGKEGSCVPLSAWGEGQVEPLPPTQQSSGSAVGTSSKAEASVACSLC
T5 sequence (P35408 whole entry): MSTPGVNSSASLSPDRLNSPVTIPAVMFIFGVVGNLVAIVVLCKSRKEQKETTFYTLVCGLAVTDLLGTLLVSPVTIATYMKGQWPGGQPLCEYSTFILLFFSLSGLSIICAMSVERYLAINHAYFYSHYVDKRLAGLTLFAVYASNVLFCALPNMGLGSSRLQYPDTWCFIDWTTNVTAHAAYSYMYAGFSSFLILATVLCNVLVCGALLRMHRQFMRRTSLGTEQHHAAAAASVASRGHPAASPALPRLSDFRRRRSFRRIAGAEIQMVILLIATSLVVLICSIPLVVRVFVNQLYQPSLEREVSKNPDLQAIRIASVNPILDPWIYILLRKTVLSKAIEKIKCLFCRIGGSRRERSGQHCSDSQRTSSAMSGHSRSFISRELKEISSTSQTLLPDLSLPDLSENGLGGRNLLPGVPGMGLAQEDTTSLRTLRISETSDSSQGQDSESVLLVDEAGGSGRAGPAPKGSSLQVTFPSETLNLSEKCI
T4 sequence (P43116 whole entry): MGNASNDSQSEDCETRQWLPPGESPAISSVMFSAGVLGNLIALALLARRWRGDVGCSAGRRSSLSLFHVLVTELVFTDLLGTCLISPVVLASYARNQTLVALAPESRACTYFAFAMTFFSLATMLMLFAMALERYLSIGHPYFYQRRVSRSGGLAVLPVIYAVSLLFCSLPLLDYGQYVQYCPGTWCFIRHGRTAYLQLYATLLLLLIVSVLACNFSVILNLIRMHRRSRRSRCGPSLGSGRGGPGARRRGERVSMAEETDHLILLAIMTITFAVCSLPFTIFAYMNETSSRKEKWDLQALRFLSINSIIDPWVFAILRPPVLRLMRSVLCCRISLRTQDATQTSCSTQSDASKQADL

With “(1R,2R,3aS,10aR)-1-{(1E,3ξ)-3-[1-(2,5-difluorophenyl)cyclobutyl]-3-hydroxy-1-propen-1-yl}-2-hydroxy-2,3,3a,9,10,10a-hexahydro-1H-benzo[b]cyclopenta[f]oxepine-6-carboxylic acid [Example 7-30]”, the EC50 on EP1 is over 10 µM; at EP3 receptor, 0.04 µM; at IP it was over 10 µM; on EP2 it was over 10 µM; on EP4, 1.5 µM. For the same substance, the “blood urea nitrogen (BUN) concentration mean” value in assay [1] (IR 0.3 µg/kg/min, day 1) turned out to be 96.6; in assay [1] (IR 0.3 µg/kg/min, day 2), 94.3; in assay [1] (IR 0.3 µg/kg/min, day 3) it was 79.8; in assay [1] (IR 3.0 µg/kg/min, day 1), 89.5; in assay [1] (IR 3.0 µg/kg/min, day 2), 81.8; in assay [1] (IR 3.0 µg/kg/min, day 3), 70.7. In addition, the “serum creatinine (sCre) concentration mean” value in assay [1] (IR 0.3 µg/kg/min, day 1) is listed as 1.78; in assay [1] (IR 0.3 µg/kg/min, day 2) it was 1.42; in assay [1] (IR 0.3 µg/kg/min, day 3), 1.00; in assay [1] (IR 3.0 µg/kg/min, day 1) it was 1.45; in assay [1] (IR 3.0 µg/kg/min, day 2), 1.10; in assay [1] (IR 3.0 µg/kg/min, day 3), 0.83.

These data come from patent EP4682141A1, “TRICYCLIC COMPOUND” (ONO Pharmaceutical Co., Ltd., priority 2023, dated 2024).
